This is an account of results in US20240115654A1, “INTRAVENOUS ADMINISTRATION OF ENGINEERED ANTIMICROBIAL AMPHIPHILIC PEPTIDES” (priority 2021, published 2024).

Values after ≈ are worked out from the molar mass of the structure shown. Peptide text beside a SMILES is read from it.

As usually defined, the MIC is the smallest concentration in the dilution series that meets the test's criterion for growth inhibition. A higher MIC goes with a need for much substance.

Test [1] relates to Enterococcus faecium isolates (n = 104). Description: microbe, parasite or virus in culture. The procedure:
Comparator antibiotics were supplied by Micromyx, and stock solutions were prepared on the first day of testing using solvents recommended by CLSI (1). Stock solutions of all compounds were made at 40× the final testing concentration and stored at −80° C. prior to testing. Information regarding compound source, catalog and lot number, testing concentrations and drug diluent for the comparators and test agent are detailed below in Table 3.
The test organisms evaluated in this study consisted of clinical isolates from the Micromyx Repository and reference isolates from the American Type Culture Collection (ATCC; Manassas, VA). The clinical isolates were obtained from USA hospitals. Upon initial receipt at Micromyx, the organisms were sub-cultured onto an appropriate agar medium. Following incubation, colonies were harvested from these plates and cell suspensions prepared and frozen at −80° C. with a cryoprotectant. […] Plates were incubated at 35° C. overnight.
MIC values were determined using a broth microdilution procedure described by CLSI (1, 3).
The test articles and comparator compounds (300 μl at 40× the highest concentration to be tested) were dispensed into the appropriate wells in column 1. The Biomek 2000 was then used to make 2-fold serial dilutions in the mother plates from column 1 through column 11. The wells of Column 12 contained no drug and served as the organism growth control wells for the assay.
The daughter plates were completed on the Biomek FX instrument which transferred 5 μL of drug solution from each well of a mother plate to the corresponding well of each daughter plate in a single step. A standardized inoculum of each test organism was prepared per CLSI methods (1). The inoculum for each organism was dispensed into sterile reservoirs divided by length (Beckman Coulter), and the Biomek 2000 was used to inoculate the plates. Daughter plates were placed on the Biomek 2000 work surface in reverse orientation so that inoculation took place from low to high drug concentration.
Plates were stacked 3-4 high, covered with a lid on the top plate, placed in plastic bags, and incubated at 35° C. for 16 to 20 hrs. Following incubation, the microplates were removed from the incubator and viewed from the bottom using a plate viewer. […] The MIC was read and recorded as the lowest concentration of drug that inhibited visible growth of the organism.
Clinical breakpoints to determine percent resistance within a given organism group were obtained from CLSI (3), with the exception of colistin for K. pneumoniae, Enterobacter spp., and E. coli, which are only available from EUCAST.

The subject of test [2] is Acinetobacter baumannii ATCC BAA-1797 (MDR). In kind it is cell-based. The note with it: Acinetobacter baumannii ATCC BAA-1797 (MDR). Summed up: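 CLSI broth microdilution in Mueller Hinton II broth with 0.002% polysorbate 80; peptides in 2-fold serial dilution, highest final test concentration 32 mcg/mL. Inoculum approx. 5×10^5 CFU/mL, incubated 35° C for 16 to 20 hrs. MIC taken as lowest peptide concentration preventing visible growth.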

Turning to `CC(C)[C@H](NC(=O)[C@H](Cc1c[nH]c2ccccc12)NC(=O)[C@H](CCCNC(=N)N)NC(=O)[C@H](CCCNC(=N)N)NC(=O)[C@@H](NC(=O)[C@@H](NC(=O)[C@H](CCCNC(=N)N)NC(=O)[C@@H](NC(=O)[C@@H](NC(=O)[C@H](CCCNC(=N)N)NC(=O)[C@H](CCCNC(=N)N)NC(=O)[C@H](Cc1c[nH]c2ccccc12)NC(=O)[C@@H](NC(=O)[C@H](CCCNC(=N)N)NC(=O)[C@H](CCCNC(=N)N)NC(=O)[C@@H](NC(=O)[C@H](CCCNC(=N)N)NC(=O)[C@H](CCCNC(=N)N)NC(=O)[C@@H](NC(=O)[C@H](Cc1c[nH]c2ccccc12)NC(=O)[C@H](CCCNC(=N)N)NC(=O)[C@@H](N)CCCNC(=N)N)C(C)C)C(C)C)C(C)C)C(C)C)C(C)C)C(C)C)C(C)C)C(=O)N[C@@H](CCCNC(=N)N)C(=O)N[C@@H](CCCNC(=N)N)C(N)=O` [SEQ ID NO: 1] (H-RRWVRRVRRVWRRVVRVVRRWVRR-NH2), in test [1] (Enterococcus faecium (n = 104)), the MIC50 was 1 µg/mL (≈ 0.294 µM), the MIC90 came to 2 µg/mL (≈ 0.588 µM) and the “Mode (MIC)” value is 1 µg/mL. In test [1] (isolates (n = 104)), this compound had an MIC50 of 0.5 µg/mL (≈ 0.147 µM), an MIC90 of 1 µg/mL (≈ 0.294 µM) and an MIC range of 0.25 to 2 µg/mL.

As to Colistin [reference compound], the MIC in test [2] turned out to be 0.5 µg/mL.
